Values quoted from earlier work as cited in patent publication US9808553B2, “Haemostatic wound dressing” (Haemostatix Limited, priority 2012, dated 2017).

Target: fibrinogen (Homo sapiens, UniProt P02679)
Sequence (P02679 27-453): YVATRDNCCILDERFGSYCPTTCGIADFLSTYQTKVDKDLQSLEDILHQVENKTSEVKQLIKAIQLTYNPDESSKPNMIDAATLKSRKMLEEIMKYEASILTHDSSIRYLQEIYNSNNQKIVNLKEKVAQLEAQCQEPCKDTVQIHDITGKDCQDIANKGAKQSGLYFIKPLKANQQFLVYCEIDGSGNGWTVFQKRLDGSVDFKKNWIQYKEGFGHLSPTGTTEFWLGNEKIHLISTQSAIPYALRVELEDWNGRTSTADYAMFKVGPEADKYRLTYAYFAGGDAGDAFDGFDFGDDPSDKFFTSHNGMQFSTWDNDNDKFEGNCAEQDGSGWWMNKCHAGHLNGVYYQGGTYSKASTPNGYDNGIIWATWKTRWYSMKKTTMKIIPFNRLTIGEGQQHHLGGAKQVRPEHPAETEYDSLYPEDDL
Sequence (P02671 20-629 partner limits assumed): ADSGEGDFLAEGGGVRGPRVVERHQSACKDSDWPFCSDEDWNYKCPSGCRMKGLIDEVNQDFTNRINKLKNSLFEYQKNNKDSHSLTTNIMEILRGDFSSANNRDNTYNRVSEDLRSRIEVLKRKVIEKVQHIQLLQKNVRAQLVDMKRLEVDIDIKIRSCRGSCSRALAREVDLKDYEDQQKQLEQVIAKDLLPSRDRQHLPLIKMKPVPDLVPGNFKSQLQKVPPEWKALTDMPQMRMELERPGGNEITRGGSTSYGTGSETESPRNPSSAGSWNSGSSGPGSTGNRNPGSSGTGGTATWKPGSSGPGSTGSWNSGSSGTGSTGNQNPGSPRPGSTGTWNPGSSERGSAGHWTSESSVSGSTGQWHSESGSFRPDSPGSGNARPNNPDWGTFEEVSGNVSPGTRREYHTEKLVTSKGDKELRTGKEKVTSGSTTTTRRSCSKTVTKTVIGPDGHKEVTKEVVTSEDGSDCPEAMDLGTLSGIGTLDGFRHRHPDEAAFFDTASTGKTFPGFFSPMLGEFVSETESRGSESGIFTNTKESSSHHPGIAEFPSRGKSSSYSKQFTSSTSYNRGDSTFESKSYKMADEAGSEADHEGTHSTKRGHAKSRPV
Sequence (P02675 31-491 partner): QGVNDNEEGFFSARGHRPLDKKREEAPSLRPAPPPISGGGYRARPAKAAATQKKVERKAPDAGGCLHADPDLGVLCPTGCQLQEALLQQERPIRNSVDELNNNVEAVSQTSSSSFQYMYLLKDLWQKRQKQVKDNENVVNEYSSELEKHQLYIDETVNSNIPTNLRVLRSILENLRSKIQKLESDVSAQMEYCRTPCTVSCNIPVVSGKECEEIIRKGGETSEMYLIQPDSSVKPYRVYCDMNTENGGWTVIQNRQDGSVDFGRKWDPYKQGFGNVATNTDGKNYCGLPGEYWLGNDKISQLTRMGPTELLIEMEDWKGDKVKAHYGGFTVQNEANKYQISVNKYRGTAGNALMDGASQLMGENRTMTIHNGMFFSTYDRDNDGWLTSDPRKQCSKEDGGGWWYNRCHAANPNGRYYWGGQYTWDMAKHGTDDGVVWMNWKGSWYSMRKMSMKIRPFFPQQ

- Affinity for fibrinogen versus natural cleaved sequence with valine at position four: higher affinity
Substance: GPRP
